Measurements from patent US20120252825A1, “BENEFICIAL EFFECTS OF COMBINATION THERAPY ON CHOLESTEROL” (Pfizer Inc., priority 2011, published 2012).
Like-named read-outs stand apart in the source and are kept apart here.

Tests used:
HDL = settings: FIG. 2
LDL-C = settings: for Percent Change from Baseline in LDL, adjusted mean: TOFACITINIB 10 mg BID
[1] = relative to Enrollment Visit
Description: Table 2 presents the ACR20 (American College of Rheumatology 20% improvement in response rate) response rates (relative to Enrollment Visit, i.e., pre-TOFACITINIB treatment).

triglycerides = settings: FIG. 5
total cholesterol = settings: FIG. 6
Apolipoprotein B = settings: FIG. 4
Apolipoprotein A-1 = settings: FIG. 3
[2] = following introduction of TOFACITINIB treatment
[3] = after Enrollment Visit (introduction of TOFACITINIB treatment)

C[C@@H]1CCN(C(=O)CC#N)C[C@@H]1N(C)c1ncnc2[nH]ccc12 [TOFACITINIB, 3-{(3R,4R)-4-Methyl-3-[methyl-(7H-pyrrolo-[2,3-d]pyrimidin-4-yl)-amino]-piperidin-1-yl}-3-oxo-propionitrile]
HDL level, trend (HDL; after Baseline Visit): slight upward trend
HDL level, trend (HDL; following the Enrollment Visit): increase
Percent Change from Baseline in LDL, adjusted mean (LDL-C; Week 10): 5.5%
Percent Change from Baseline in LDL, adjusted mean (LDL-C; Week 12 (primary endpoint)): 5.8%
baseline LDL-C mean (LDL-C; after 6 weeks treatment with TOFACITINIB, placebo/TOFACITINIB treatment group, before placebo was added): 138.26 mg/dL
LDL level, trend (LDL-C; after Baseline Visit, FIG. 1): slightly increasing trend
median LDL-C level, trend (LDL-C; after Enrollment Visit (introduction of TOFACITINIB treatment), FIG. 1): increase
LDL-C mean (LDL-C; week 12, 6 weeks following randomization): 142.61 mg/dL
ACR20 response rate, % of responders ([1]; Baseline (after 6 week treatment of TOFACITINIB 10 mg BID), atorvastatin group before add-on): 76.0%
ACR20 response, number of responders ([1]; Baseline (after 6 week treatment of TOFACITINIB 10 mg BID), atorvastatin group before add-on, N 50): 38
ACR20 response rate, % of responders ([1]; Baseline (after 6 week treatment of TOFACITINIB 10 mg BID), placebo group before add-on): 76.6%
ACR20 response, number of responders ([1]; Baseline (after 6 week treatment of TOFACITINIB 10 mg BID), placebo group before add-on, N 47): 36
ACR20 response rate, % of responders ([1]; Week 12, after 6 week treatment of atorvastatin or placebo added on to TOFACITINIB 10 mg BID): 65.2%
ACR20 response, number of responders ([1]; Week 12, after 6 week treatment of atorvastatin or placebo added on to TOFACITINIB 10 mg BID, N 46): 30
triglycerides level, trend (triglycerides; after Baseline Visit): increases continue
triglycerides level, trend (triglycerides; [2]): increase
total cholesterol level, trend (total cholesterol; after Baseline Visit): slightly increasing trend
median total cholesterol level, trend (total cholesterol; [3]): increase
Apolipoprotein B level, trend (Apolipoprotein B; after Baseline Visit): slightly increasing trend
median Apolipoprotein B level, trend (Apolipoprotein B; [3]): increase
Apolipoprotein A-1 level, trend (Apolipoprotein A-1; after Baseline Visit): slightly trend upward
Apolipoprotein A-1 level, trend (Apolipoprotein A-1; [2]): increases
